Laboratory results as given in PubChem BioAssay (NCI).
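Five compound concentrations were applied to cells in 96-well plates for 48 hours; endpoints were derived by simple linear interpolation of the resulting dose-response curve. TGI: total growth inhibition.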

Assays:
Assay in all cases: DTP human tumour cell line panel, 48 h
MCF7 breast = test system: MCF7 breast
OVCAR-8 ovarian = test system: OVCAR-8 ovarian
IGROV1 ovarian = test system: IGROV1 ovarian
CCRF-CEM leukemia = test system: CCRF-CEM leukemia
SF-268 CNS = test system: SF-268 CNS
UACC-62 melanoma = test system: UACC-62 melanoma
SF-539 CNS = test system: SF-539 CNS
SR leukemia = test system: SR leukemia
SF-295 CNS = test system: SF-295 CNS
NCI-H23 lung = test system: NCI-H23 lung
UACC-257 melanoma = test system: UACC-257 melanoma
MDA-MB-231 breast = test system: MDA-MB-231 breast
OVCAR-5 ovarian = test system: OVCAR-5 ovarian
OVCAR-4 ovarian = test system: OVCAR-4 ovarian
SNB-75 CNS = test system: SNB-75 CNS
T-47D breast = test system: T-47D breast
SK-OV-3 ovarian = test system: SK-OV-3 ovarian
SK-MEL-5 melanoma = test system: SK-MEL-5 melanoma
RPMI-8226 leukemia = test system: RPMI-8226 leukemia
HOP-92 NSCLC = test system: HOP-92 NSCLC
SK-MEL-2 melanoma = test system: SK-MEL-2 melanoma
HOP-62 NSCLC = test system: HOP-62 NSCLC
CAKI-1 renal = test system: CAKI-1 renal
RXF 393 renal = test system: RXF 393 renal
DU-145 prostate = test system: DU-145 prostate
U251 CNS = test system: U251 CNS
HS 578T breast = test system: HS 578T breast
SN12C renal = test system: SN12C renal
HL-60(TB) leukemia = test system: HL-60(TB) leukemia
HCC-2998 colon = test system: HCC-2998 colon
SK-MEL-28 melanoma = test system: SK-MEL-28 melanoma
UO-31 renal = test system: UO-31 renal
786-0 renal = test system: 786-0 renal
NCI/ADR-RES ovarian = test system: NCI/ADR-RES ovarian
MOLT-4 leukemia = test system: MOLT-4 leukemia
KM12 colon = test system: KM12 colon
MDA-MB-435 = test system: MDA-MB-435
A549 NSCLC = test system: A549 NSCLC
A498 renal = test system: A498 renal
MDA-N = test system: MDA-N
HT29 colon = test system: HT29 colon
HCT-15 colon = test system: HCT-15 colon
NCI-H460 lung = test system: NCI-H460 lung
ACHN renal = test system: ACHN renal
M14 melanoma = test system: M14 melanoma
TK-10 renal = test system: TK-10 renal
PC-3 prostate = test system: PC-3 prostate
HCT-116 colon = test system: HCT-116 colon
SW-620 colon = test system: SW-620 colon
SNB-19 CNS = test system: SNB-19 CNS
K-562 leukemia = test system: K-562 leukemia
LOX IMVI melanoma = test system: LOX IMVI melanoma
EKVX NSCLC = test system: EKVX NSCLC
NCI-H522 lung = test system: NCI-H522 lung
NCI-H226 lung = test system: NCI-H226 lung
COLO 205 colon = test system: COLO 205 colon
BT-549 breast = test system: BT-549 breast
OVCAR-3 ovarian = test system: OVCAR-3 ovarian
MALME-3M melanoma = test system: MALME-3M melanoma

`COC1(OC)C=CC(=O)C=C1` showed a TGI (MCF7 breast) of 8.42 µM, a TGI (OVCAR-8 ovarian) of 7.61 µM and a TGI (IGROV1 ovarian) of 4.77 µM. It also gave a TGI (CCRF-CEM leukemia) of 22.4 µM, a TGI (SF-268 CNS) of 16.7 µM and a TGI (UACC-62 melanoma) of 4.08 µM. For the same compound, the TGI (SF-539 CNS) was 11.8 µM, the TGI (SR leukemia) was over 100 µM and the TGI (SF-295 CNS) was 23.9 µM. The TGI (NCI-H23 lung) was 10.6 µM, the TGI (UACC-257 melanoma) was 8.48 µM and the TGI (MDA-MB-231 breast) was 7.2 µM. It also gave a TGI (OVCAR-5 ovarian) of over 41.6 µM, a TGI (OVCAR-4 ovarian) of 16.7 µM and a TGI (SNB-75 CNS) of 26.9 µM. It also gave a TGI (T-47D breast) of 10.7 µM, a TGI (SK-OV-3 ovarian) of 26.3 µM and a TGI (SK-MEL-5 melanoma) of 46.2 µM. The TGI (RPMI-8226 leukemia) was 13.5 µM, the TGI (HOP-92 NSCLC) was 11 µM and the TGI (SK-MEL-2 melanoma) was 21.5 µM. The TGI (HOP-62 NSCLC) was 24.5 µM, the TGI (CAKI-1 renal) was 11.6 µM and the TGI (RXF 393 renal) was 4.51 µM. It also gave a TGI (DU-145 prostate) of 12.6 µM, a TGI (U251 CNS) of 4.9 µM and a TGI (HS 578T breast) of over 40.5 µM. It also gave a TGI (SN12C renal) of 30.8 µM, a TGI (HL-60(TB) leukemia) of 15.6 µM and a TGI (HCC-2998 colon) of 15.4 µM. For the same compound, the TGI (SK-MEL-28 melanoma) was 4.16 µM, the TGI (UO-31 renal) was 4.22 µM and the TGI (786-0 renal) was 4.55 µM. For the same compound, the TGI (NCI/ADR-RES ovarian) was 13.7 µM, the TGI (MOLT-4 leukemia) was over 95.2 µM and the TGI (KM12 colon) was 25.8 µM. It also gave a TGI (MDA-MB-435) of 12.8 µM, a TGI (A549 NSCLC) of 21.3 µM and a TGI (A498 renal) of over 91.2 µM. It also gave a TGI (MDA-N) of over 36.8 µM, a TGI (HT29 colon) of 12.1 µM and a TGI (HCT-15 colon) of 16.9 µM. The TGI (NCI-H460 lung) was 19.7 µM, the TGI (ACHN renal) was 8.56 µM and the TGI (M14 melanoma) was 11.5 µM. It also gave a TGI (TK-10 renal) of 7.67 µM, a TGI (PC-3 prostate) of 13.9 µM and a TGI (HCT-116 colon) of 2.77 µM. The TGI (SW-620 colon) was 3.12 µM, the TGI (SNB-19 CNS) was 30.2 µM and the TGI (K-562 leukemia) was over 100 µM. For the same compound, the TGI (LOX IMVI melanoma) was 2.91 µM, the TGI (EKVX NSCLC) was 21.9 µM and the TGI (NCI-H522 lung) was 0.885 µM. The TGI (NCI-H226 lung) was 10.4 µM, the TGI (COLO 205 colon) was 28.1 µM and the TGI (BT-549 breast) was 14.2 µM. The TGI (OVCAR-3 ovarian) was 12.4 µM.
In the case of `COc1cc2c(c(OC)c1)C(=O)O[C@H](C)CCCC/C=C/C2`, the TGI (MCF7 breast) is reported as over 32.6 µM, the TGI (OVCAR-8 ovarian) is reported as over 100 µM and the TGI (IGROV1 ovarian) is reported as over 31.1 µM. It also gave a TGI (CCRF-CEM leukemia) of over 100 µM, a TGI (UACC-62 melanoma) of over 58 µM and a TGI (SF-539 CNS) of 25.9 µM. It also gave a TGI (SR leukemia) of over 100 µM, a TGI (SF-295 CNS) of over 32.2 µM and a TGI (NCI-H23 lung) of over 100 µM. It also gave a TGI (UACC-257 melanoma) of over 33.9 µM, a TGI (MDA-MB-231 breast) of over 31.9 µM and a TGI (OVCAR-5 ovarian) of over 32.7 µM. It also gave a TGI (OVCAR-4 ovarian) of over 31.4 µM, a TGI (SNB-75 CNS) of over 32.8 µM and a TGI (MALME-3M melanoma) of 31.3 µM. The TGI (T-47D breast) was over 31.6 µM, the TGI (SK-OV-3 ovarian) was over 100 µM and the TGI (SK-MEL-5 melanoma) was 11.2 µM. It also gave a TGI (RPMI-8226 leukemia) of 25.6 µM, a TGI (HOP-92 NSCLC) of 25.7 µM and a TGI (SK-MEL-2 melanoma) of 31.1 µM. It also gave a TGI (HOP-62 NSCLC) of 24.7 µM, a TGI (CAKI-1 renal) of 26.4 µM and a TGI (RXF 393 renal) of 25.2 µM. The TGI (DU-145 prostate) was 27.1 µM, the TGI (U251 CNS) was 30.5 µM and the TGI (HS 578T breast) was over 100 µM. For the same compound, the TGI (SN12C renal) was 13.6 µM, the TGI (HL-60(TB) leukemia) was 4.45 µM and the TGI (HCC-2998 colon) was over 32.9 µM. For the same compound, the TGI (SK-MEL-28 melanoma) was over 34.1 µM, the TGI (UO-31 renal) was over 30.8 µM and the TGI (786-0 renal) was 27.5 µM. For the same compound, the TGI (NCI/ADR-RES ovarian) was over 77.2 µM, the TGI (MOLT-4 leukemia) was over 31.9 µM and the TGI (KM12 colon) was over 35.2 µM. The TGI (MDA-MB-435) was 12.9 µM, the TGI (A549 NSCLC) was over 100 µM and the TGI (A498 renal) was over 100 µM. For the same compound, the TGI (MDA-N) was 26.4 µM, the TGI (HT29 colon) was over 71.8 µM and the TGI (HCT-15 colon) was over 66.9 µM. It also gave a TGI (NCI-H460 lung) of over 32.6 µM, a TGI (ACHN renal) of over 30.6 µM and a TGI (M14 melanoma) of over 32.2 µM. It also gave a TGI (TK-10 renal) of over 33.8 µM, a TGI (HCT-116 colon) of 38.2 µM and a TGI (SW-620 colon) of 22.9 µM. It also gave a TGI (SNB-19 CNS) of over 32.5 µM, a TGI (K-562 leukemia) of over 100 µM and a TGI (LOX IMVI melanoma) of 23 µM. The TGI (EKVX NSCLC) was 29.6 µM, the TGI (NCI-H522 lung) was 24 µM and the TGI (NCI-H226 lung) was over 95.8 µM. It also gave a TGI (COLO 205 colon) of 31.8 µM, a TGI (BT-549 breast) of over 35.1 µM and a TGI (OVCAR-3 ovarian) of 28 µM.
